Columns and labels:
[1] = Free radical scavenging activity by DPPH assay; type: biochemical; conditions: optical density at 540 nm; lower SC50 = higher activity
Procedure: Each of the extracts of Examples and Comparative Examples was suspended in purified water to evaluate a free radical scavenging activity of each of the extracts. A DPPH assay is a method of measuring an optical density at 540 nm to measure a level of discoloration caused by an inhibitor scavenging stable 2,2-diphenyl-1-picrylhydrazyl (DPPH) radicals. Vitamin C was used as the control, and a 50% scavenging concentration (SC50) of the DPPH radicals was measured. Then, the measured SC50 of the DPPH radicals was compared to that of the control (Table 3). In particular, the free radical scavenging activity of the sample of Example 1 at different concentrations was measured, and compared to that of the control (FIG. 1).

[2] = Free radical scavenging activity by ABTS assay; type: biochemical; conditions: measured at 732 nm; lower SC50 = higher activity
Procedure: Each of the extracts of Examples and Comparative Examples was suspended in purified water to evaluate a free radical scavenging activity of each of the extracts. […] Vitamin C was used as the control, and a 50% scavenging concentration (SC50) of the ABTS radicals was measured. Then, the measured SC50 of the ABTS radicals was compared to that of the control (Table 4). In particular, the free radical scavenging activities at different concentrations were measured in the case of Example 1, and compared to that of the control (FIG. 1).

[3] = system: women; assay: Skin elasticity-improving effect of formulated creams (Cutometer MPA580); type: in vivo; conditions: cream around the eyes twice a day for 12 weeks; Cutometer MPA580 R8 value
Procedure: A skin elasticity-improving effect of the cosmetic composition including each of the samples obtained in Examples and Comparative Examples was evaluated. The respective samples were formulated into creams having the same compositions. In this case, only the samples of Examples 1 to 9 and Comparative Examples 1 to 12 differed. Healthy women over the age of 20 years old (with an average age of 37 years old) were divided into groups, and instructed to apply the formulated creams of Examples and Comparative Examples onto their faces under conditions of a temperature of 24 to 26° C. and a humidity of 75%. The formulated creams were applied around the eyes twice (morning and evening) a day for 12 weeks, and the skin elasticity was measured using a skin elastometer (Cutometer MPA580 commercially available from Courage+Khazaka Electronic GmbH, Germany). The test results were expressed as R8 (R8 (week 12)−R8 (week 0)) values of the Cutometer MPA580, and the R8 values represented properties such as skin viscoelasticity.

[4] = system: B16F10 cells; assay: Melanin content assay (amount of produced melanin); type: cell-based; conditions: α-MSH stimulated, sample 200 μg/mL (50 mg/L), 48 hours, arbutin 200 μg/mL as control
Procedure: To check a whitening effect of the samples of Examples and Comparative Examples, an ability of the samples of Examples and Comparative Examples to inhibit melanogenesis was evaluated using a melanin content assay (Eisinger M et al., 1982; Siegrist W and Eberle A N, 1986). Each of the samples of Examples and Comparative Examples was suspended at a concentration of 50 mg/L in purified water, and an amount of produced melanin was determined.
B16F10 cells were seeded at a concentration of 1.5×10^5 cells/well in a 60 mm culture dish, and then cultured for 24 hours. A melanogenesis-stimulating hormone, α-MSH (Sigma-Aldrich, St. Louis, Mo., USA), and each of the samples of Examples and Comparative Examples were added to a medium at a concentration of 200 μg/mL (Virador V M et al., 1999).
After 48 hours had elapsed, the cells were harvested, and then washed once with PBS. Thereafter, 120 μL of a 1 N NaOH lysis buffer was added thereto, and the resulting mixture was heated at 95° C. for 10 minutes to lyse the cells. The optical density at a wavelength of 450 nm was measured using a microplate reader. Here, arbutin at a concentration of 200 μg/mL was used as the control (Table 6).
In particular, the melanin production rates at different concentrations were measured in the case of Example 1 (FIG. 1).

Compound | 50% Scavenging Concentration (SC50) of DPPH Radicals [1] | 50% Scavenging Concentration (SC50) of ABTS Radicals [2] | Skin elasticity-improving effect, R8 (week 12) − R8 (week 0) [3] | Melanin production rate [4]
O=C1O[C@H]([C@@H](O)CO)C(O)=C1O [Control (Vitamin C), Vitamin C] | 8.7 µg/mL | 8.7 µg/mL | 0.92 | –
OC[C@H]1O[C@@H](Oc2ccc(O)cc2)[C@H](O)[C@@H](O)[C@@H]1O [Positive control, arbutin] | – | – | – | 38.2%
